Data from patent US20230149418A1, “METHODS AND SYNERGIC COMPOSITIONS FOR TREATING VIRAL INFECTIONS” (HADASIT MEDICAL RESEARCH SERVICES AND DEVELOPMENT LTD., priority 2018, published 2023).
Like-named read-outs stand apart in the source and are kept apart here.

Tests used:
HCMV = assay: Ex vivo HCMV infection of human decidual (placental) tissue organ cultures, viral mRNA copy number; assay type: cell-based, human cytomegalovirus; details: for EC50: Human betaherpesvirus 5; for Dose of drug alone at Fa 0.9: Fa 0.9, drug alone; for DRI (dose reduction index): combination artemisone + maribavir
Method: Organ cultures were washed and stored at -80° C. until assayed. RNA was extracted, and the purified RNA samples were subjected to reverse transcription (RT), followed by quantitative real-time PCR. The viral mRNA copy number was normalized by the cellular housekeeping gene β-actin.
We employed our model of HCMV infection in human decidual tissues (representing the maternal aspect of the chimeric human placenta), maintained as multi-cell-type 3D organ cultures as described in Weisblum Y. et al. J Virol 2011 85(24): 13204-13. doi: 10.1128/JVI.05749-11. For infection of the organ cultures, decidual tissues were placed in 48-well plates and inoculated with the virus (5x10^4 plaque forming units (PFU)/well) for 12 h to allow effective viral adsorption. The tissues were further monitored for viral infection and spread for 7 days. For determination of the drug EC50 values of in the tissues, serial drug concentrations: each drug separately or combination of the drugs were added to the infected decidual tissues during viral adsorption at any further medium replacement to keep the drug concentration constant. The results were compared to samples to which the drug was not added. The EC50 was defined as the drug concentration required to reduce the viral mRNA copy number by 50%. The effect of drug combinations was tested in accordance with the Chou-Talalay method. All comparative experiments were performed in parallel on tissues from the same donor.
The dose reduction index (DRI) was then calculated as described in Chou. As described earlier, the DRI is a measure of how many folds the dose of each drug in a synergistic combination may be reduced at a given effect level compared with the doses of each drug alone. For each one of the below tables: Fa - fraction of virus affected; doses are provided in µm.

human endothelial cells = details: compared with dihydroartemisinin; cited from earlier work

CC1CCC2[C@@H](C)[C@H](N3CCS(=O)(=O)CC3)OC3O[C@]4(C)CCC1C32OO4 (stereo in doubt) [artemisone]
EC50 (HCMV; ex vivo, Fa 0.5, drug alone, read-out: Dose of drug alone at Fa 0.5): 425 nM
EC50 (HCMV; sole drug, ex vivo decidual tissues, read-out: EC50 (concentration required to reduce the viral mRNA copy number by 50%)): 500 nM
Dose of drug alone at Fa 0.05 (HCMV; ex vivo, Fa 0.05, drug alone): 0.00699 µm
Dose of drug alone at Fa 0.75 (HCMV; ex vivo, Fa 0.75, drug alone): 1.965 µm
Dose of drug alone at Fa 0.9 (HCMV; ex vivo): 9.1 µm
Dose of drug alone at Fa 0.9 (HCMV; ex vivo, listed as Art): 9.098 µm
Dose of drug alone at Fa 0.95 (HCMV; ex vivo, Fa 0.95, drug alone): 25.7963 µm
Dose of drug alone at Fa 0.97 (HCMV; ex vivo, Fa 0.97, drug alone): 54.1517 µm
DRI (dose reduction index) (HCMV; ex vivo, Fa 0.05): 0.1239
DRI (dose reduction index) (HCMV; ex vivo, Fa 0.5): 1.12
DRI (dose reduction index) (HCMV; ex vivo, Fa 0.75): 2.546
DRI (dose reduction index) (HCMV; ex vivo, Fa 0.9): 5.8
DRI (dose reduction index) (HCMV; ex vivo, Fa 0.9, listed as Art): 5.789
DRI (dose reduction index) (HCMV; ex vivo, Fa 0.95, listed as Art): 10.1210
DRI (dose reduction index) (HCMV; ex vivo, Fa 0.97): 15.0614
Anti-angiogenic activity (human endothelial cells): significantly less anti-angiogenic than dihydroartemisinin
